Data: ChEMBL document CHEMBL1153832, “Identification and characterization of UK-201844, a novel inhibitor that interferes with human immunodeficiency virus type 1 gp160 processing” (Antimicrob Agents Chemother, 2007)
The source made the active and inactive calls. The rule behind the calls is not given here.

Experiments:
[1] = tested on: Human immunodeficiency virus 1; experiment: Antiviral activity against HIV1 bearing VSV envelope infected in human HeLa CD4 cells coexpressing LTR/beta-Gal gene assessed as reduction in virus-induced beta-galactosidase reporter gene activity after 72 hrs by single-cycle infection assay; assay type: functional, organism-based; details: Human immunodeficiency virus 1, HeLa
[2] = tested on: Human immunodeficiency virus 1; experiment: Antiviral activity against HIV1 NL4-3 transfected in HEK293 cells assessed as inhibition of infectious virus production at 0.12 uM; assay type: functional; design: scale not given: the % may be the effect or the level left
[3] = tested on: Human immunodeficiency virus 1; experiment: Antiviral activity against HIV1 bearing HIV1 NL4-3 envelope infected in human MT2 cells assessed as inhibition of HIV-envelope packed virions at 0.12 uM after 72 hrs by virus production assay relative to control; assay type: functional; details: Human immunodeficiency virus 1, MT2, 72 h
[4] = tested on: Human immunodeficiency virus 1; experiment: Antiviral activity against HIV1 bearing VSV envelope infected in human MT2 cells assessed as inhibition of VSV-envelope packed virions at 0.12 uM after 72 hrs by virus production assay relative to control; assay type: functional; details: Human immunodeficiency virus 1, MT2, 72 h
[5] = tested on: Human immunodeficiency virus 1; experiment: Inhibition of HIV1 NL4-3 proteins incorporation into virions transfected in HEK293 cells assessed as aberrant Env protein at 0.12 uM by Western blot; assay type: functional, organism-based
[6] = tested on: Human immunodeficiency virus 1; experiment: Antiviral activity against HIV1 bearing HIV1 NL4-3 envelope infected in human HeLa CD4 cells coexpressing LTR/beta-Gal gene assessed as reduction in virus-induced beta-galactosidase reporter gene activity after 72 hrs by single-cycle infection assay; assay type: functional, organism-based; details: Human immunodeficiency virus 1, HeLa
[7] = tested on: Human immunodeficiency virus 1; experiment: Inhibition of HIV1 NL4-3 proteins incorporation into virions transfected in HEK293 cells assessed as unprocessed gp160 Env protein at 0.12 uM by Western blot; assay type: functional, organism-based

Cc1c(O)cccc1C(=O)N[C@@H](CSc1ccccc1)[C@H](O)CN1C[C@H]2CCCC[C@H]2C[C@H]1C(=O)NC(C)(C)C [NELFINAVIR]
EC50 [1]: > 1 µM | Activity [2]: 94% | inhibition in vivo at 0.12 µM [3]: 88% | inhibition in vivo at 0.12 µM [4]: 97% | Activity [5]: Active | EC50 [6]: > 1 µM | Activity [7]: Active
